Literature values in patent publication US20100216641A1, “Low VOC and Stable Plant Growth Regulator Liquid and Granule Compositions” (priority 2009, published 2010).

Conditions: at 25° C.

For `O=C(Nc1ccccc1)Nc1ccnc(Cl)c1` [CPPU, forchlorfenuron], the water solubility is listed as 39 ppm.
